Paper PMC2801521, “Correctness of Protein Identifications of Bacillus subtilis Proteome with the Indication on Potential False Positive Peptides Supported by Predictions of Their Retention Times” (Journal of Biomedicine and Biotechnology, 2009)

Assay: Experimental gradient RP-LC retention time of peptides (LC-ESI-MS/MS)
Assay type: physicochemical
Description: The chromatographic analysis was performed on C-18 analytical column: XTerra MS C18 3.5 μm (2.1 × 100 mm) column (Waters, Milford, MA, USA).
The mobile phase consisted of two solvents (A and B) mixed on-line. Solvent A was 0.1% aqueous (water was MS-grade) solution of trifluoroacetic acid (TFA) (Sigma-Aldrich, Steinheim, Germany) and solvent B was acetonitrile (ACN) (MS-grade, Sigma-Aldrich, Steinheim, Germany) containing 0.1% TFA. The applied linear gradient time was 90 min, from 0% B to 60% B. The flow rate was 200 μL/min. The injection volume was 10 μL. The LC-MS apparatus was equipped with thermostated column oven and surveyor autosampler controlled at 20°C (Thermo Finnigan, San Jose, CA, USA), a quaternary gradient Surveyor MS pump (Thermo Finnigan, San Jose, CA, USA) with a diode array detection (DAD) system, and LTQ linear ion trap MS system with ESI ion source controlled by Xcalibur software 1.4 (Thermo Finnigan, San Jose, CA, USA).
The MS/MS analysis was performed on Finnigan LTQ instrument (Thermo Finnigan, San Jose, CA, USA). Mass spectra were generated in positive ion mode under constant instrumental conditions: source voltage 4.62 kV, capillary voltage 40.97 V, sheath gas flow rate 39.99 (arbitrary units), auxiliary gas flow 10 (arbitrary units), sweep gas flow 0.95 (arbitrary units), capillary temperature 219.96°C, and tube lens voltage 250.43 V. MS/MS spectra, obtained by CID (collision-induced dissociation) in the linear ion trap, were performed with an isolation width 3Da (m/z); the activation amplitude was 35% of ejection RF amplitude that corresponds to 1.58 V.
The experimental retention times of the peptides (tR exp) were determined at peak intensity maximum. The m/z values measured manually for the most intense peaks in acquired MS/MS spectra were automatically searched against the protein database (*fasta) using the Sequest Algorithm, incorporated into Bioworks 3.0 (Thermo Finningan, San Jose, CA, USA). The *fasta format for each protein was downloaded from Expasy (http://www.expasy.org/sprot/).

[1] = Table 1, model peptides, gradient RP-LC, XTerra MS C18 3.5 μm 2.1 × 100 mm, 0-60% ACN with 0.1% TFA, linear 90 min, 200 μL/min, 20°C, ESI-MS/MS, at peak intensity maximum
[2] = Table 2, test peptides from model proteins, gradient RP-LC, XTerra MS C18, 0-60% ACN with 0.1% TFA in 90 min, 200 μL/min, 20°C, ESI-MS/MS
[3] = experimental gradient HPLC retention time (LC-ESI-MS/MS), Table 4 test peptides
[4] = Table 5, Bacillus subtilis proteome peptides, one peptide, Xcorr below 1.5, gradient RP-LC, XTerra MS C18, 0-60% ACN with 0.1% TFA in 90 min, 200 μL/min, 20°C, ESI-MS/MS

Row | Substance | tR exp [3] [min] | tR exp [4] [min] | further results
1 | CCAAADPHECYAK [model peptide from tryptic digest of model protein 6] |  |  | tR exp [1]: 16.98 min
2 | NVACK [test peptide from tryptic digest of model protein 7] |  |  | tR exp [2]: 8.38 min
3 | ETCFAEEGKK [test peptide from tryptic digest of model protein 6] |  |  | tR exp [2]: 16.58 min
4 | SHTGKAAVLNR | 24.54 |  | 
5 | VHTECCHGDLLECADDR [model peptide from tryptic digest of model protein 6] |  |  | tR exp [1]: 22.86 min
6 | EPIQSFFQID |  | 51.92 | 
7 | ELQEKFLIPAVEQKK | 29.27 |  | 
8 | IHTLEHLLAFTI |  | 81.04 | 
9 | VVVSVNTDQDQAQAQSQDGED | 19.37 |  | 
10 | HGGSLSAPAIH |  | 97.03 | 
11 | LALDLESKK | 18.01 |  | 
12 | QDIPIEARMNEIVHSLK | 29.33 |  | 
13 | GIIAAYG |  | 89.29 | 
14 | SGSIESIDVSLTDLR | 33.05 |  | 
15 | INIMSAR | 14.23 |  | 
16 | ELSASMG |  | 18.33 | 
17 | LIDKHKKYVYHRINK | 29.00 |  | 
18 | LAAGISTI |  | 92.62 | 
19 | GQEQLIPPLIL |  | 81.34 | 
20 | EGTVIKELIGAGQLDEK | 29.49 |  | 
21 | AQLSEKKGADGYL |  | 26.46 | 
22 | DIMSPSR | 14.30 |  | 
23 | LTELQVRHII |  | 48.06 | 
24 | AAFTECCQAADK [model peptide from tryptic digest of model protein 6] |  |  | tR exp [1]: 19.31 min
25 | YPNCAYK [model peptide from tryptic digest of model protein 7] |  |  | tR exp [1]: 16.78 min
26 | AAEMAVARQNEQKVKK | 29.44 |  | 
27 | YICENQDSISSK [model peptide from tryptic digest of model protein 6] |  |  | tR exp [1]: 18.06 min

Row | Substance | tR exp [3] [min] | tR exp [4] [min] | further results
28 | IDIALESKK | 18.04 |  | 
29 | GHNPGQPEPLSGSK | 17.05 |  | 
30 | HSSDEEPFSALAFK | 33.16 |  | 
31 | KIDKSIFPGIQGGPLMH |  | 12.03 | 
32 | NECFLQHK [model peptide from tryptic digest of model protein 6] |  |  | tR exp [1]: 19.67 min
33 | HIIVACEGNPYVPVHFDASV [model peptide from tryptic digest of model protein 7] |  |  | tR exp [1]: 32.15 min
34 | NRAVGFISFVI |  | 58.59 | 
35 | SGETEDSTIADIAVATNAGQIK | 30.05 |  | 
36 | GNQVSENLQQAAR | 20.52 |  | 
37 | LEIASEFGVNLGADTTSR | 33.12 |  | 
38 | NLLFAAR | 14.27 |  | 
39 | VHTECCHGDLLECADDRADLAK [model peptide from tryptic digest of model protein 6] |  |  | tR exp [1]: 24.98 min
40 | PIITVAKEAWPTL |  | 83.17 | 
41 | NIAEMVK | 14.25 |  | 
42 | PQTPVP |  | 80.37 | 
43 | DGWKVCLGKVGSMDAHKVVAAIETASKKSG |  | 37.72 | 
44 | QHMDSSTSAASSSNYCNQMMK [model peptide from tryptic digest of model protein 7] |  |  | tR exp [1]: 20.46 min
45 | DRVFIAPVGGGPR | 29.82 |  | 
46 | EAEELIPNVTTAAVK | 29.18 |  | 
47 | TGALIVYTSADSVLQIAAHEEVVPLEE |  | 52.12 | 
48 | DGITDVL |  | 93.5 | 
49 | IDNLSYYIEQEYK | 30.89 |  | 
50 | IGLLIFLP |  | 93.97 | 
51 | LNSLDSR | 14.29 |  | 
52 | EVMIEGVLSVLEGQAPK | 29.51 |  | 
53 | TCVADESAENCDK [model peptide from tryptic digest of model protein 6] |  |  | tR exp [1]: 15.32 min
54 | IDFPTNITMD |  | 96.80 | 
